Results as given in ChEMBL document CHEMBL1201862, “PubChem BioAssay data set” (2004).
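In this assay, cells in 96-well plates receive the compound at five concentrations for 48 hours. Endpoints are linearly interpolated between the surrounding concentrations. GI50: concentration for 50% inhibition of growth.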 The source made the active and inactive calls. No stated cut-off is given here; in the data, active = GI50 up to about 1.1 µM and inactive = higher.

Legend:
Assay in all cases: inhibition of tumour cell growth, NCI panel, 48 h
[1] = system: SF-295
[2] = system: CCRF-CEM
[3] = system: HOP-62
[4] = system: M14
[5] = system: UACC-62
[6] = system: UACC-257
[7] = system: IGROV-1
[8] = system: KM12
[9] = system: OVCAR-5
[10] = system: SK-MEL-28
[11] = system: NCI-H226
[12] = system: COLO 205
[13] = system: NCI-H522
[14] = system: NCI-H460
[15] = system: ACHN
[16] = system: XF498
[17] = system: EKVX
[18] = system: HCT-15
[19] = system: DLD-1
[20] = system: RPMI-8226
[21] = system: SK-MEL-5
[22] = system: DMS-114
[23] = system: OVCAR-3
[24] = system: HCT-116
[25] = system: SF-539
[26] = system: RXF 393
[27] = system: OVCAR-4
[28] = system: HOP-92
[29] = system: KM-20L2
[30] = system: UO-31
[31] = system: Malme-3M
[32] = system: SW-620
[33] = system: A549
[34] = system: HL-60
[35] = system: 786-0
[36] = system: SK-MEL-2
[37] = system: TK-10
[38] = system: HT-29
[39] = system: LXFL 529
[40] = system: SNB-75
[41] = system: SNB-78
[42] = system: HOP-18
[43] = system: SNB-19
[44] = system: LOX IMVI
[45] = system: U-251
[46] = system: M19-MEL
[47] = system: NCI-H23
[48] = system: HCC 2998
[49] = system: A498
[50] = system: OVCAR-8
[51] = system: SF-268
[52] = system: SK-OV-3
[53] = system: SN12C
[54] = system: DMS-273
[55] = system: SR
[56] = system: CAKI-1
[57] = system: K562
[58] = system: MOLT-4

Which GI50 [1] does the source give for `CCCc1nn(C)c(CCC(=O)N(Cc2ccccc2)Cc2ccccc2)c1CC` here?
The GI50 was > 100 µM (inactive).

And the GI50 [2]?
The GI50 was > 100 µM (inactive).

And the GI50 [3]?
The GI50 was > 100 µM (inactive).

What about the GI50 [4] of the same compound?
The GI50 was > 100 µM (inactive).

And the GI50 [5]?
Its GI50 is > 100 µM (inactive).

What about the GI50 [6] of the same compound?
The GI50 was > 100 µM (inactive).

And the GI50 [7]?
The GI50 was > 100 µM (inactive).

What about the GI50 [8] of the same compound?
Its GI50 is > 100 µM (inactive).

What about the GI50 [9] of the same compound?
Its GI50 is > 100 µM (inactive).

What about the GI50 [10] of the same compound?
The GI50 was > 100 µM (inactive).

And the GI50 [11]?
Its GI50 is > 100 µM (inactive).

And the GI50 [12]?
Its GI50 is > 100 µM (inactive).

What about the GI50 [13] of the same compound?
The GI50 was > 100 µM (inactive).

What about the GI50 [14] of the same compound?
The GI50 was > 100 µM (inactive).

What about the GI50 [15] of the same compound?
The GI50 was > 100 µM (inactive).

What about the GI50 [16] of the same compound?
The GI50 was > 100 µM (inactive).

And the GI50 [17]?
The GI50 was > 100 µM (inactive).

And the GI50 [18]?
The GI50 was > 100 µM.

And the GI50 [19]?
The GI50 was > 100 µM (inactive).

And the GI50 [20]?
The GI50 was > 100 µM (inactive).

And the GI50 [21]?
Its GI50 is > 100 µM (inactive).

What about the GI50 [22] of the same compound?
The GI50 was > 100 µM (inactive).

What about the GI50 [23] of the same compound?
The GI50 was > 100 µM (inactive).

What about the GI50 [24] of the same compound?
Its GI50 is > 100 µM (inactive).

What about the GI50 [25] of the same compound?
Its GI50 is > 100 µM (inactive).

And the GI50 [26]?
The GI50 was > 100 µM (inactive).

And the GI50 [27]?
The GI50 was > 100 µM (inactive).

What about the GI50 [28] of the same compound?
Its GI50 is > 100 µM (inactive).

And the GI50 [29]?
The GI50 was > 100 µM (inactive).

What about the GI50 [30] of the same compound?
The GI50 was > 100 µM (inactive).

And the GI50 [31]?
The GI50 was > 100 µM (inactive).

What about the GI50 [32] of the same compound?
Its GI50 is > 100 µM (inactive).

What about the GI50 [33] of the same compound?
The GI50 was > 100 µM (inactive).

And the GI50 [34]?
Its GI50 is > 100 µM (inactive).

What about the GI50 [35] of the same compound?
The GI50 was > 100 µM (inactive).

What about the GI50 [36] of the same compound?
The GI50 was > 100 µM (inactive).

And the GI50 [37]?
Its GI50 is > 100 µM (inactive).

What about the GI50 [38] of the same compound?
The GI50 was > 100 µM (inactive).

What about the GI50 [39] of the same compound?
The GI50 was > 100 µM (inactive).

What about the GI50 [40] of the same compound?
The GI50 was 47 µM (inactive).

What about the GI50 [41] of the same compound?
The GI50 was > 100 µM (inactive).

What about the GI50 [42] of the same compound?
The GI50 was > 100 µM (inactive).

What about the GI50 [43] of the same compound?
The GI50 was > 100 µM (inactive).

And the GI50 [44]?
The GI50 was > 100 µM (inactive).

What about the GI50 [45] of the same compound?
The GI50 was > 100 µM (inactive).

What about the GI50 [46] of the same compound?
The GI50 was > 100 µM (inactive).

What about the GI50 [47] of the same compound?
Its GI50 is > 100 µM (inactive).

What about the GI50 [48] of the same compound?
The GI50 was > 100 µM (inactive).

And the GI50 [49]?
Its GI50 is > 100 µM (inactive).

What about the GI50 [50] of the same compound?
The GI50 was > 100 µM (inactive).

And the GI50 [51]?
Its GI50 is > 100 µM (inactive).

What about the GI50 [52] of the same compound?
Its GI50 is > 100 µM (inactive).

And the GI50 [53]?
Its GI50 is > 100 µM (inactive).

How did the GI50 [1] turn out when `CS(=O)(=O)c1ccc(COP(N)(=O)N(CCCl)CCCl)cc1` (stereo not drawn) was run?
The GI50 was > 100 µM (inactive).

What about the GI50 [2] of the same compound?
Its GI50 is > 100 µM (inactive).

And the GI50 [3]?
Its GI50 is > 100 µM (inactive).

And the GI50 [54]?
Its GI50 is > 100 µM (inactive).

What about the GI50 [4] of the same compound?
The GI50 was > 100 µM (inactive).

And the GI50 [5]?
Its GI50 is > 100 µM (inactive).

And the GI50 [6]?
The GI50 was > 100 µM (inactive).

What about the GI50 [7] of the same compound?
Its GI50 is > 100 µM (inactive).

What about the GI50 [8] of the same compound?
The GI50 was > 100 µM (inactive).

And the GI50 [9]?
The GI50 was > 100 µM (inactive).

And the GI50 [10]?
The GI50 was > 100 µM (inactive).

What about the GI50 [11] of the same compound?
Its GI50 is > 100 µM (inactive).

What about the GI50 [12] of the same compound?
The GI50 was > 100 µM (inactive).

What about the GI50 [55] of the same compound?
The GI50 was > 100 µM (inactive).

What about the GI50 [13] of the same compound?
Its GI50 is > 100 µM (inactive).

What about the GI50 [14] of the same compound?
Its GI50 is > 100 µM (inactive).

What about the GI50 [15] of the same compound?
Its GI50 is > 100 µM (inactive).

What about the GI50 [16] of the same compound?
Its GI50 is > 100 µM (inactive).

And the GI50 [56]?
The GI50 was > 100 µM (inactive).

What about the GI50 [18] of the same compound?
The GI50 was > 100 µM.

What about the GI50 [19] of the same compound?
Its GI50 is > 100 µM (inactive).

What about the GI50 [20] of the same compound?
The GI50 was > 100 µM (inactive).

And the GI50 [21]?
The GI50 was > 100 µM (inactive).

And the GI50 [22]?
Its GI50 is > 100 µM (inactive).

And the GI50 [23]?
Its GI50 is > 100 µM (inactive).

And the GI50 [24]?
The GI50 was > 100 µM (inactive).

And the GI50 [25]?
The GI50 was > 100 µM (inactive).

And the GI50 [26]?
The GI50 was > 100 µM (inactive).

And the GI50 [27]?
The GI50 was > 100 µM (inactive).

And the GI50 [28]?
Its GI50 is > 100 µM (inactive).

What about the GI50 [29] of the same compound?
Its GI50 is > 100 µM (inactive).

And the GI50 [30]?
The GI50 was > 100 µM (inactive).

What about the GI50 [31] of the same compound?
The GI50 was > 100 µM (inactive).

What about the GI50 [32] of the same compound?
The GI50 was > 100 µM (inactive).

And the GI50 [33]?
The GI50 was > 100 µM (inactive).

What about the GI50 [35] of the same compound?
The GI50 was > 100 µM (inactive).

What about the GI50 [36] of the same compound?
The GI50 was > 100 µM (inactive).

And the GI50 [37]?
The GI50 was > 100 µM (inactive).

What about the GI50 [38] of the same compound?
The GI50 was > 100 µM (inactive).

And the GI50 [39]?
The GI50 was > 100 µM (inactive).

What about the GI50 [40] of the same compound?
The GI50 was > 100 µM (inactive).

What about the GI50 [41] of the same compound?
The GI50 was > 100 µM (inactive).

And the GI50 [57]?
Its GI50 is > 100 µM (inactive).

What about the GI50 [43] of the same compound?
Its GI50 is > 100 µM (inactive).

And the GI50 [44]?
The GI50 was > 100 µM (inactive).

And the GI50 [45]?
The GI50 was > 100 µM (inactive).

What about the GI50 [46] of the same compound?
Its GI50 is > 100 µM (inactive).

What about the GI50 [58] of the same compound?
Its GI50 is > 100 µM (inactive).

What about the GI50 [47] of the same compound?
The GI50 was > 100 µM (inactive).

What about the GI50 [48] of the same compound?
The GI50 was > 100 µM (inactive).

What about the GI50 [49] of the same compound?
The GI50 was > 100 µM (inactive).

And the GI50 [50]?
Its GI50 is > 100 µM (inactive).

What about the GI50 [51] of the same compound?
Its GI50 is > 100 µM (inactive).

And the GI50 [52]?
The GI50 was > 100 µM (inactive).

And the GI50 [53]?
The GI50 was > 100 µM (inactive).
